Consider 3 compounds from patent US8110570B2, “Modulators of acetyl-coenzyme A carboxylase and methods of use thereof” (Cropsolution, Inc., priority 2008, dated 2012).

For test [1], the system named is hepatic fatty acid synthesis. The experiment in a line: In vivo inhibition of rat hepatic fatty acid synthesis. Conditions: oral. The procedure: In vivo measurement of fatty acid synthesis inhibition in mammals. Incorporation of [2-^14C]acetate into saponifiable lipids in the livers of mammals (e.g. Sprague Dawley rats, Charles River Laboratories, Boston, Mass. or Harlan Laboratories, Indianapolis, Ind.) can be measured as described previously (Harwood Jr. H. J. et al., J Biol Chem, 39: 37099-37111 (2003)). For example, animals given food and water ad libitum are treated orally at volume of 1.0 ml/200 g of body weight with either an aqueous solution containing 0.5% methyl cellulose (vehicle) or an aqueous solution containing 0.5% methyl cellulose containing test compound. One hour after compound administration, animals receive an intraperitoneal injection of [2-^14C]acetate (0.02 mL, 1 mCi/mL; 50 mCi/mmol. One hour after radiolabel administration, animals are sacrificed by CO2 asphyxiation, and two liver pieces (about 0.75 g each) are removed and saponified at 70° C. for 120 min in 2.5 M NaOH (1.5 mL). After saponification, absolute EtOH (2.5 mL) is added to each sample and the solutions are mixed and allowed to stand overnight. Petroleum ether (4.8 mL) is then added to each sample, and after vigorous shaking (2 min) the mixtures are centrifuged at 1000×g (5 min). The petroleum ether layer containing the nonsaponifiable lipids is removed and discarded. The remaining aqueous layer is acidified (pH<2) by addition of 12 M HCl (0.6 mL) and extracted two times with petroleum ether (4.8 mL). The pooled organic fractions are transferred to liquid scintillation vials, dried under nitrogen, dissolved in Aquasol scintillation fluid (7 ml), and radioactivity is quantified by liquid scintillation counting. Inhibition of fatty acid synthesis by the test compound is expressed as a relative percent inhibition of measured incorporation of [2-^14C]acetate into saponifiable lipids during the interval between [2-^14C]acetate injection and CO2 asphyxiation in animals receiving test compound, compared to control animals receiving only the vehicle.
Compounds of the present invention, and salts thereof, were evaluated for inhibition of fatty acid synthesis as described above.

Test [2] deals with beta-hydroxybutyrate levels. The experiment in a line: In vivo elevation of rat serum beta-hydroxybutyrate levels. The following applies: orally at 30 mg/Kg. The text has this: Determination of blood levels of ketone bodies after oral dosing of ACC inhibitors. Compounds of this invention, and salts thereof, can be evaluated for their potential as treatments for diseases caused by reduced neuronal metabolism by assessing their effects on plasma levels of beta-hydroxybutyrate. Inhibition of ACC leads to increased rates of fatty acid oxidation and therefore production of beta-hydroxybutyrate. Rats (Sprague Rats (Sprague Dawley, Charles River Laboratories, Boston, Mass.) are acclimated for at least 4 days prior to dosing. For example, animals given food and water ad libitum are treated at volume of 1.0 mL/200 g of body weight with either an aqueous solution containing 0.5% methyl cellulose (vehicle) or an aqueous solution containing 0.5% methyl cellulose containing test compound. At various times after compound administration whole blood is collected from a jugular vein catheter into lithium heparin coated tubes, mixed gently, kept on ice and centrifuged (2500×g, 15 minutes at 4° C.) within 1 hour of collection. The isolated plasma is kept frozen at −20° C. until further processing. Plasma levels of beta-hydroxybutyrate are determined using a beta-hydroxybutyrate detection kit following the manufacturer's directions (StanBio Laboratory, Boerne, Tex.). Compounds of the present invention, and salts thereof, were assessed for their ability to increase serum beta-hydroxybutyrate levels as described above.

Test [3] deals with uACC (Ustilago maydis ACC) (Ustilago maydis, UniProt A0A0D1DYD5). The experiment in a line: [14C]bicarbonate incorporation assay, overall ACC activity. The class given is biochemical.
A further test concerns HepG2 cells. Description: Fatty acid synthesis assay, 14C-acetate incorporation into phospholipids. In kind it is cell-based. The following applies: Homo sapiens, 24 h, read-out: inhibition of radiolabel incorporation into phospholipids. From the text: The in vivo ACC inhibitory activity of compounds in this invention can be confirmed in cultured cells using standard procedures that are well known to those skilled in the art. For example, since ACC catalyzes the first committed step in fatty acid biosynthesis, the in vivo activity of compounds can be confirmed by measuring their ability to prevent the formation of radiolabeled fatty acids from radiolabeled acetate in cultured human hepatoma cells (HepG2). In addition, since the malonyl-CoA produced by ACC inhibits fatty acid oxidation, the in vivo ACC inhibitory activity of compounds can be further confirmed by measuring the stimulation of fatty acid oxidation in cultured mouse myoblast cells (C2C12).
Fatty acid synthesis assays are performed with slight modifications to published procedures (Beckers et al., Cancer Res, 2007, 67: 8180-8187; Wang, J Lipid Res., 2006, 47:2028-41). Briefly, HepG2 cells are grown in Dulbecco's modified eagles medium containing 10% fetal calf serum in 6-well culture plates. Cells are treated for 24 h with test compounds added as DMSO stock solutions to a final DMSO concentration of 0.5% (v/v). After test compound incubation, ^14C—[2]-acetate is added (3 μCi/6 well plate) and cells are further incubated for 4 hrs. Cells are then harvested in 40% methanol and assayed for total protein. Total lipids are extracted with chloroform:methanol (2:1) and ^14C-radioactivity is quantified in the aqueous and organic phases. Total lipids in the organic phase are separated by thin-layer chromatography (TLC, silica gel 60A) using hexane:ether:acetic acid (90:30:1) as the mobile phase. Radioactivity distribution of lipid classes on TLC plates is quantified by phosphorimaging (Molecular Dynamics Storm 820). Compound 6 inhibited radiolabel incorporation into phospholipids 32% and 14% at 10 μM and 1 μM, respectively, while Compound 2 inhibited radiolabel incorporation into phospholipids 93% and 42% at 10 μM and 1 μM, respectively.

Sequence of uACC (Ustilago maydis ACC) (A0A0D1DYD5 entry or part of it): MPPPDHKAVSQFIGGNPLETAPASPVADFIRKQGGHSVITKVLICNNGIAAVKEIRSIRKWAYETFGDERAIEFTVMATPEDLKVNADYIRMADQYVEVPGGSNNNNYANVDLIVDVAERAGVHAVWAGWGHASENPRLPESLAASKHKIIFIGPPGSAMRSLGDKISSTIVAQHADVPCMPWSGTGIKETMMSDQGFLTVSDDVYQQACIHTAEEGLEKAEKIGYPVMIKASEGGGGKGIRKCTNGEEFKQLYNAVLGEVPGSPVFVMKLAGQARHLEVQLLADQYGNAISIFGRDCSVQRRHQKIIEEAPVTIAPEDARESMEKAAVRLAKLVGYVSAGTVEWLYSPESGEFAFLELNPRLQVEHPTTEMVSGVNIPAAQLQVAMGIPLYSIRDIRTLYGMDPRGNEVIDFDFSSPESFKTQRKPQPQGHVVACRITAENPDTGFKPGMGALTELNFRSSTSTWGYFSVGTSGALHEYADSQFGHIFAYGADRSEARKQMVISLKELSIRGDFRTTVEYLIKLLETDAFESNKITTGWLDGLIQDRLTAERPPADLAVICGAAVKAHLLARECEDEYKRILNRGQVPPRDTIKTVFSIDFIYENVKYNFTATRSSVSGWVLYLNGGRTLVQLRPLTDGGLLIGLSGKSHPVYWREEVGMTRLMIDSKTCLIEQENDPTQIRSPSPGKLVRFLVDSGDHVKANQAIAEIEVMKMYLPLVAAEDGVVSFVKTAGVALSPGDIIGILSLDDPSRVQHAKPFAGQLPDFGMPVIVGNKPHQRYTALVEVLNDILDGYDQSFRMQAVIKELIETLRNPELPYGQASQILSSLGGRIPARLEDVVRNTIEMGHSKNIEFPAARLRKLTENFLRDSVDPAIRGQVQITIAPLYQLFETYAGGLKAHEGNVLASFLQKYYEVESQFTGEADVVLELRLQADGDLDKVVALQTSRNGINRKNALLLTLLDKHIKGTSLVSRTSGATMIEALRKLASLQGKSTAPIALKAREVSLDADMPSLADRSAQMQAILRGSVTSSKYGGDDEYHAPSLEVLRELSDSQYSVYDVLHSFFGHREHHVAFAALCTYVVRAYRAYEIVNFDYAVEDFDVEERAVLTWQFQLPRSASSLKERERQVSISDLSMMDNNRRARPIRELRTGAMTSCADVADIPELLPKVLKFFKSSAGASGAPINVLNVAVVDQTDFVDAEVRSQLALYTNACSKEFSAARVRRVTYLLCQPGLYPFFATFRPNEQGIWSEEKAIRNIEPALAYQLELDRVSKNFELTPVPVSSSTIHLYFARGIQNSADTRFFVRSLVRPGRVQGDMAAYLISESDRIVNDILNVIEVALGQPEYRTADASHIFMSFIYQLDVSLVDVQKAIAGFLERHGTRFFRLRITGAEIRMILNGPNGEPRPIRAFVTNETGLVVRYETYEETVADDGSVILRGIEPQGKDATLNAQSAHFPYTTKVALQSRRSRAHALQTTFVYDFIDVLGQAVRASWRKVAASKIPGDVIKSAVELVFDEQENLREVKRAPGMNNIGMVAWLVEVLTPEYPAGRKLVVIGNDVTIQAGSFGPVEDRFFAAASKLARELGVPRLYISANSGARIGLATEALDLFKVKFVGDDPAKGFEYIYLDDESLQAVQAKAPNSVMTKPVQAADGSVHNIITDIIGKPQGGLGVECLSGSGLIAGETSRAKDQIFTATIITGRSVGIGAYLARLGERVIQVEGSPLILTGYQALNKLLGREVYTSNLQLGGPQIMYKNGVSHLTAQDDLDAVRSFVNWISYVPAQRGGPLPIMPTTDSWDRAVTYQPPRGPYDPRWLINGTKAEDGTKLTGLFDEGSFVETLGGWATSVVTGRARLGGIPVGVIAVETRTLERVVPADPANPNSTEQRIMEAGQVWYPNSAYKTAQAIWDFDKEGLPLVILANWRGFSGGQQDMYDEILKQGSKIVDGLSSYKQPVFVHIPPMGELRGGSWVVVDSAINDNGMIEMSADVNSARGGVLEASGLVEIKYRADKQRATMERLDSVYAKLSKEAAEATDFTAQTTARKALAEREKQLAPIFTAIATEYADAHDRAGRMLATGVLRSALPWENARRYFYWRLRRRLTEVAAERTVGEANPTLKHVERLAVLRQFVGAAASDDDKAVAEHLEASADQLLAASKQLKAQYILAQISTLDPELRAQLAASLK

As to `COc1cc(C(=O)N2CCC3(CC2)NC(=O)c2cc(OC(C)C)ccc2O3)nc2c(OC)cccc12` [Compound 169], the “Percent Inhibition at 10 mg/Kg” value in test [1] turned out to be 30%. Besides, the “Percent Inhibition at 30 mg/Kg” value in test [1] is recorded as 60%. The “Average beta-Hydroxybutyrate Concentration” value in test [2] (15 min) amounted to 0.149 mM; in test [2] (30 min), 0.201 mM; in test [2] (60 min) it was 0.135 mM; in test [2] (120 min), 0.126 mM; in test [2] (240 min), 0.118 mM.

On to `COc1ccc2c(c1)C(=O)NC1(CCN(C(=O)c3cc(OC)c4cccc(OC)c4n3)CC1)O2` [Compound 150], for which the “Percent Inhibition at 10 mg/Kg” value in test [1] is 20%. In test [1], the “Percent Inhibition at 30 mg/Kg” value amounted to 54%. Moreover, the “Average beta-Hydroxybutyrate Concentration” value in test [2] (15 min) was 0.160 mM; in test [2] (30 min) it was 0.214 mM; in test [2] (60 min), 0.147 mM; in test [2] (120 min), 0.140 mM; in test [2] (240 min), 0.102 mM.

Turning to `COc1cc(C(=O)N2CCC3(CC2)NC(=O)c2cc(Br)ccc2O3)nc2c(OC)cccc12` [Compound 2, 6-Bromo-1′-[(4,8-dimethoxyquinoline-2-yl)carbonyl]spiro[2H-1,3-benzoxazine-2,4′-piperidine]-4(3H)-one], in test [3], the IC50 is 11 µM. Further, in the test with HepG2 cells (HepG2, 1 μM), the inhibition at 1 µM was determined as 42%. The inhibition at 10 µM with HepG2 cells (HepG2, 10 μM) was found to be 93%.

The IC50 is the concentration needed to halve the response being measured. Higher therefore signals a need for much substance.
